Holding throughout (assay): Phosphatase panel, DiFMUP fluorescence assay
Type in all cases: biochemical

One test deals with T1, PTPRC/CD45 (Homo sapiens, UniProt P08575).
T1 construct: purchased Recation Biology Inc
T1 sequence (P08575 26-1306): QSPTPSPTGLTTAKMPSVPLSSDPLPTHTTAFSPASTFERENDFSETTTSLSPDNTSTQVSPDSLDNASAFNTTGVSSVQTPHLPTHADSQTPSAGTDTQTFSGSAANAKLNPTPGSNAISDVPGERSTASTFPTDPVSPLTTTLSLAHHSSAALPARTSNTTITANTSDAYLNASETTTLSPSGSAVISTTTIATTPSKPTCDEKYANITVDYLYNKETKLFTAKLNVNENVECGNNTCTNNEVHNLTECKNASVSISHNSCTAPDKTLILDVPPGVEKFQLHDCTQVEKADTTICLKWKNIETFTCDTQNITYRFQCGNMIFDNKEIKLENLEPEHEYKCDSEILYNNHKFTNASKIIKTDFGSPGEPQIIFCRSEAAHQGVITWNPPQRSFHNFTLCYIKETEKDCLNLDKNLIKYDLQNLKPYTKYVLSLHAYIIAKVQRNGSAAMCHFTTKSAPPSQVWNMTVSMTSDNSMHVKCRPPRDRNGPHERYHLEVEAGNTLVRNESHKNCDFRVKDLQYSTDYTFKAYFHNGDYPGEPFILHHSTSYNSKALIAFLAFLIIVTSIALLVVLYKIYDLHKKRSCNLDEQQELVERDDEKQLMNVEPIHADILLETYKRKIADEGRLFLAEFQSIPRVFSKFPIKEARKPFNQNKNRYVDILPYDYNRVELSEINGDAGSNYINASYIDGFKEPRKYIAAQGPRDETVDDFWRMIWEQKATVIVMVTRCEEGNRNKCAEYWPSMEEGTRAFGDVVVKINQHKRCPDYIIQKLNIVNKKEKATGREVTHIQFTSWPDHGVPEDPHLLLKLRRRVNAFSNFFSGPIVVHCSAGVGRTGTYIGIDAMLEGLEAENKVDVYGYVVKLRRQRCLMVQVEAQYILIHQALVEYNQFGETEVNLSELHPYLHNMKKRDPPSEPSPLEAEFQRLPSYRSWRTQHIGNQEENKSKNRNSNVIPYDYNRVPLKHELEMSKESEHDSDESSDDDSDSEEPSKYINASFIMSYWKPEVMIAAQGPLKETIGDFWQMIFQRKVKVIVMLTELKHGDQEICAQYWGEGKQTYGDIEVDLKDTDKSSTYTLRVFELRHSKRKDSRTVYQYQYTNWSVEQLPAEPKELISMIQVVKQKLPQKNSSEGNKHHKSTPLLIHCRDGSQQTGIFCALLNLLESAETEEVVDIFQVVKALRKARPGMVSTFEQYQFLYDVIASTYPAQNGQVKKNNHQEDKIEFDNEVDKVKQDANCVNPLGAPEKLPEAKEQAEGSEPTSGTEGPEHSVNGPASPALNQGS

The target in the next test is T2, PTPN7/LC-PTP (Homo sapiens, UniProt P35236).
T2 construct: purchased Recation Biology Inc
T2 sequence (P35236 1-360): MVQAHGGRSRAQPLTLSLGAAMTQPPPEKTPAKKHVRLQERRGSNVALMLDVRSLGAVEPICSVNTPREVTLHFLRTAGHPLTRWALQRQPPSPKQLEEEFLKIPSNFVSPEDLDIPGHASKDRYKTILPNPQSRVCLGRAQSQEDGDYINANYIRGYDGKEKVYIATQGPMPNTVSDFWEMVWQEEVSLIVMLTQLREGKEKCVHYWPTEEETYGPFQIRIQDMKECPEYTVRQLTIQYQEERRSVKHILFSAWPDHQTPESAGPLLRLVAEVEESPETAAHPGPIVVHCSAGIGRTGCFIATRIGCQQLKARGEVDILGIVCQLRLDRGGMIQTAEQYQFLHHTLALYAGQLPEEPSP

The target in the next test is T3, PTPN11/SHP2 (Homo sapiens, UniProt Q06124).
T3 sequence (Q06124 1-593): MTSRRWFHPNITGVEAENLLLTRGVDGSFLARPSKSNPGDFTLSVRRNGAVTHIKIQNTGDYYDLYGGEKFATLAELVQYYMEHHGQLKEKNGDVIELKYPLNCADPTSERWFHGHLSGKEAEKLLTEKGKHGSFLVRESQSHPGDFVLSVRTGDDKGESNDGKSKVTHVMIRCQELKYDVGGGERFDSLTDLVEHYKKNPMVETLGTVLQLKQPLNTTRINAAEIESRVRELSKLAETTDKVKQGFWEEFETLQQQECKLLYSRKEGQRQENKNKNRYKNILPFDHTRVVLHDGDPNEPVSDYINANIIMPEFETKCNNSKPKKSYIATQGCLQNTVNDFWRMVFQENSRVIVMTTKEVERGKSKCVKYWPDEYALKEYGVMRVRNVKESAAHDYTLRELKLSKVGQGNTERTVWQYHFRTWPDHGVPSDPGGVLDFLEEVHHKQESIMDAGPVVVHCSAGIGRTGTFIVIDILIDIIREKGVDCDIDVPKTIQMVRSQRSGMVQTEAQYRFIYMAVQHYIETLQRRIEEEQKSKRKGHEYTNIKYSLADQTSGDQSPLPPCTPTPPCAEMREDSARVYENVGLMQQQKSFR
To be noted: read-out: inhibitory activity PTPN11/SHP.

For another test, the target named is T4, PTPN2/TC-PTP (Homo sapiens, UniProt P17706).
T4 construct: purchased Recation Biology Inc
T4 sequence (P17706 1-415): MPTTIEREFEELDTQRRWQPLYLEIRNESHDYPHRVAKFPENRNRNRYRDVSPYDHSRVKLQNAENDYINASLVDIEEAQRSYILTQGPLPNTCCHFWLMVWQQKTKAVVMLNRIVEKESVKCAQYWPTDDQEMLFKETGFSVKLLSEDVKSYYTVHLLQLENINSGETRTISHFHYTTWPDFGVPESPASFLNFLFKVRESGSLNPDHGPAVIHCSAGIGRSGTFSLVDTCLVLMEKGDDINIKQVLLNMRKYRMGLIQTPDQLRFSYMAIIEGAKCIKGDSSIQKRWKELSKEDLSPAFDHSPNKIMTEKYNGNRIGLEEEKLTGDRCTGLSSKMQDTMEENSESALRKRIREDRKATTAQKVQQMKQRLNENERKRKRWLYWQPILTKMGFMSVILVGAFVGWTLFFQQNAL

[1] abbreviates: Table 5B, read-out: Compound IC50 (M) PTPRC/CD45.
The mark [2] stands for this setting: Table 5C, read-out: Compound IC50 (M) PTPN7/LC-PTP.
The mark [3] stands for this setting: Table 19B, read-out: inhibitory activity PTPN2/TC-PTP.
Setting [4] is: Table 19A, read-out: inhibitory activity PTPRC/CD45.
Setting [5] is: Table 19B, read-out: inhibitory activity PTPN7/LC-PTP.

The structures appear in SMILES notation. Read-outs that look alike come from different tables or passages of the source.

Turning to `CC(C)[C@@H](CC[C@@H](C)[C@H]1CC[C@H]2[C@@H]3[C@H](O)C[C@H]4C[C@@H](NCCCNCCCCNCCCN)CC[C@]4(C)[C@H]3CC[C@]12C)OS(=O)(=O)O` (single isomer, unassigned) [ENT-02 (MSI-1436), trodusquemine], the IC50 at PTPRC/CD45 (setting [1]) was 4.94e-07 M; on PTPN7/LC-PTP (setting [2]) it was 1.65e-06 M.

Take `CC(CCC[C@@H](C)[C@H]1CCC2C3C(CC[C@@]21C)[C@@]1(C)CC[C@H](NCCCNCCCCNCCCN)C[C@@H]1C[C@H]3O)C(=O)O` (single isomer, unassigned) [ENT-03]: the IC50 on PTPN11/SHP2 (Table 19A) is 5000 nM; at PTPN2/TC-PTP (Table 5C, read-out: Compound IC50 (M) PTPN2/TC-PTP), greater than 0.0001 M; on PTPN2/TC-PTP (setting [3]) it was greater than 0.0001 M; at PTPRC/CD45 (setting [1]), 5.71e-07 M; at PTPRC/CD45 (setting [4]) it was 5.17e-07 M; on PTPN7/LC-PTP (setting [2]), 6.34e-07 M. Further, on PTPN7/LC-PTP (setting [5]), the IC50 was determined as 6.34e-07 M. Further, the “activity at PTPN2” value on PTPN2/TC-PTP was “inactive”.

As to `CC(CCC[C@@H](C)[C@H]1CCC2C3C(CC(O)[C@@]21C)[C@@]1(C)CC[C@H](NCCCNCCCCN)C[C@@H]1C[C@H]3O)C(=O)O` (single isomer, unassigned) [ENT-05], the IC50 on PTPN11/SHP2 (Table 18A) is 18400 nM; at PTPN2/TC-PTP (Table 18B, read-out: inhibitory activity PTPN2/TC-PTP), greater than 0.0001 M; on PTPRC/CD45 (Table 18A, read-out: inhibitory activity PTPRC/CD45), greater than 0.0001 M; at PTPN7/LC-PTP (Table 18B, read-out: inhibitory activity PTPN7/LC-PTP), 3.97e-06 M.

Consider `CC(CCC[C@@H](C)[C@H]1CCC2C3C(CC[C@@]21C)[C@@]1(C)CC[C@H](NCCCNCCCCN)C[C@@H]1C[C@H]3O)C(=O)O` (single isomer, unassigned) [ENT-06], for which the IC50 was 3450 nM at PTPN11/SHP2 (Table 19A), greater than 0.0001 M at PTPN2/TC-PTP (setting [3]), 1.22e-06 M at PTPRC/CD45 (setting [4]) and 1.05e-06 M on PTPN7/LC-PTP (setting [5]).

For the origin of these results see US20250228873A1, “C25 R AND S ISOMERS OF AMINOSTEROLS AND METHODS OF MAKING AND USING THE SAME” (Enterin, Inc., priority 2022, published 2025).
